Where two headings read alike, the source gives them in different places. A value given as a limit tells only on which side of the number the result lay.

The values below come from patent US10098878B2, “HIF-2α inhibitors for treating iron overload disorders” (The Board of Regents of the University of Texas System, priority 2014, dated 2018).

For test [1], the target named is T1, HIF-2α HIS TAG-PASB Domain (Homo sapiens, UniProt Q99814).
T1 construct: 100 nM HIF-2α HIS TAG-PASB Domain
Description: HIF-2α Scintillation Proximity Assay (SPA). The format is binding. The note with it: 150 nM Compound 211 probe, 100 nM HIF-2α HIS TAG-PASB Domain; read-out: SPA IC50. As to the method: The total assay volume was about 100 μL in the following configuration: 2 μL compound in 100% DMSO, 88 μL buffer with protein and probe and 10 μL of SPA beads. […] The percent inhibition was determined and IC50 values were calculated using the Dotmatics system based on the following equation: % inhibition=[(high control−sample)/(high control−low control)]×100.

For another test, the system named is 786-O-Hif-Luc cells. Description: Luciferase Assay. The conditions noted are these: read-out: Luciferase EC50. The format is cell-based. As to the method:
A pool of infected cells were then selected against 2 μg/mL of puromycin (P8833, Sigma) for 10 days followed by limited dilution to select single clones.
Each concentration was tested in triplicate. After about 24 hours, luciferase activity was determined using ONE-Glo Luciferase Assay Reagent (E6110, Promega) following the manufacturer's recommended procedure. EC50 were calculated by using Dotmatics software.

The mark [2] stands for this setting: 24 h, 786-O-Hif-Luc cells, about 24 hours.
[3] abbreviates: 786-O-Hif-Luc cells, about 24 hours.

T1 sequence (Q99814 240-350 limits assumed): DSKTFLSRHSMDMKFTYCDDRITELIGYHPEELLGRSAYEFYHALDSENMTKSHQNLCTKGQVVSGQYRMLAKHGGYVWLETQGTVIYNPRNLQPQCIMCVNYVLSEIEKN

`CS(=O)(=NC#N)c1ccc(Oc2cc(F)cc(C#N)c2)c2c1[C@H](O)[C@H](F)C2` (mixture of isomers) [Compound 66, N-(((2R,3S)-7-(3-cyano-5-fluorophenoxy)-2-fluoro-3-hydroxy-2,3-dihydro-1H-inden-4-yl)(methyl)(oxo)-λ^6-sulfanylidene)cyanamide]: the IC50 in test [1] worked out at 63 nM. In addition, in the test with 786-O-Hif-Luc cells (setting [2]), the EC50 is 115 nM.

With `N#Cc1cc(F)cc(Oc2ccc(S(=O)(=O)C(F)(F)F)c3c2[C@@H](N)C[C@H]3O)c1` (relative stereo) [Compound 43, 3-((cis-3-amino-1-hydroxy-7-((trifluoromethyl)sulfonyl)-2,3-dihydro-1H-inden-4-yl)oxy)-5-fluorobenzonitrile], the half-maximal inhibitory concentration (IC50) in test [1] was 5100 nM. Besides, in the test with 786-O-Hif-Luc cells (setting [2]), the EC50 turned out to be 5900 nM. Taken in the same sequence, the figures for `N#Cc1cc(F)cc(Oc2ccc(S(=O)(=O)C(F)(F)F)c3c2CC(F)C3N)c1` (single isomer, unassigned) [Compound 29, 3-((1-amino-2-fluoro-7-((trifluoromethyl)sulfonyl)-2,3-dihydro-1H-inden-4-yl)oxy)-5-fluorobenzonitrile] were 90 nM and 897 nM. `N#Cc1cc(F)cc(Oc2ccc(S(=N)(=O)CF)c3c2CC(F)(F)[C@H]3O)c1` (single isomer, unassigned) [Compound 39]: the IC50 in test [1] amounted to 76 nM. Further, the EC50 in the test on 786-O-Hif-Luc cells (setting [3]) was 255 nM.

Turning to `N#CN=S(=O)(CF)c1ccc(Oc2cc(F)cc(C#N)c2)c2c1[C@H](O)[C@H](F)C2` (single isomer, unassigned) [Compound 40], the IC50 in test [1] came to 58 nM. In addition, the EC50 with 786-O-Hif-Luc cells (setting [3]) is 153 nM. Regarding `N#CN=S(=O)(CF)c1ccc(Oc2cc(F)cc(C#N)c2)c2c1[C@H](O)C(F)(F)C2` (single isomer, unassigned) [Compound 49], in test [1], the IC50 amounted to 71 nM. The EC50 with 786-O-Hif-Luc cells (setting [2]) was found to be 100 nM. As to `C=CCN=S(=O)(c1ccc(Oc2cc(F)cc(C#N)c2)c2c1[C@H](O)C(F)(F)C2)C(F)(F)F` (single isomer, unassigned) [Compound 71], in test [1], the concentration for half-maximal inhibition (IC50) amounted to 370 nM. Also, the EC50 in the test on 786-O-Hif-Luc cells (setting [3]) was found to be 1670 nM. For the compound `N=S1(=O)c2ccc(Oc3cc(F)cc(F)c3)c(Br)c2C(O)C1(F)F` (single isomer, unassigned) [Compound 141, 4-Bromo-5-(3,5-difluorophenoxy)-2,2-difluoro-3-hydroxy-1-imino-2,3-dihydro-1H-1λ^4-benzo[b]thiophene 1-oxide], the half-maximal inhibitory concentration (IC50) in test [1] was 4100 nM. For the same compound, the EC50 in the test on 786-O-Hif-Luc cells (setting [2]) stood at 544 nM. Consider `N=S1(=O)c2ccc(Oc3cc(F)cc(F)c3)c(Br)c2C(O)C1(F)F` (single isomer, unassigned) [Compound 142, 4-bromo-5-(3,5-difluorophenoxy)-2,2-difluoro-3-hydroxy-1-imino-2,3-dihydro-1H-1λ^4-benzo[b]thiophene 1-oxide], for which the IC50 in test [1] was 239 nM. In addition, in the test with 786-O-Hif-Luc cells (setting [3]), the EC50 came to 286 nM. For `CS(=N)(=O)c1ccc(Oc2cc(F)cc(F)c2)c2c1[C@H](O)C(F)(F)C2` (stereo partly drawn) [Compound 10, ((S)-7-(3,5-Difluorophenoxy)-2,2-difluoro-3-hydroxy-2,3-dihydro-1H-inden-4-yl)(imino)(methyl)-λ^6-sulfanone], the IC50 in test [1] came out at 177 nM. Moreover, the EC50 in the test on 786-O-Hif-Luc cells (setting [2]) turned out to be 277 nM.

For `Cc1cncc(Oc2ccc(S(C)(=O)=O)c3c2CC(F)(F)[C@H]3O)n1` [Compound 11, (S)-2,2-Difluoro-4-((6-methylpyrazin-2-yl)oxy)-7-(methylsulfonyl)-2,3-dihydro-1H-inden-1-ol], the IC50 in test [1] is less than 5 nM. The EC50 in the test on 786-O-Hif-Luc cells (setting [2]) came out at 13500 nM. In the same order, the values of `Cc1cc(Oc2cc(F)cc(C#N)c2)c2c(c1S(C)(=O)=O)C(O)C(F)(F)C2` (stereo not shown) [Compound 12, 3-((2,2-Difluoro-1-hydroxy-6-methyl-7-(methylsulfonyl)-2,3-dihydro-1H-inden-4-yl)oxy)-5-fluorobenzonitrile] are 800 nM and 775 nM. In the same order, the values of `O=S(=O)(CF)c1ccc(Oc2cccc3sccc23)c2c1C(O)C(F)(F)C2` (stereo not shown) [Compound 22, 4-(Benzo[b]thiophen-4-yloxy)-2,2-difluoro-7-((fluoromethyl)sulfonyl)-2,3-dihydro-1H-inden-1-ol] are 230 nM and 512 nM. In the case of `CS(=O)(=O)c1ccc(Oc2cc(F)cc(C#N)c2)c2c1[C@H](O)CC2` [Compound 51, 3-fluoro-5-[(1R)-1-hydroxy-7-methylsulfonyl-indan-4-yl]oxy-benzonitrile], the EC50 with 786-O-Hif-Luc cells (setting [2]) worked out at 650 nM. Same read-out and setting: next, `CS(=O)(=O)c1ccc(Oc2cc(F)cc(C#N)c2)c2c1[C@H](O)[C@H](F)[C@@H]2F` [Compound 53, 3-[(1S,2S,3R)-2,3-difluoro-1-hydroxy-7-methylsulfonyl-indan-4-yl]oxy-5-fluoro-benzonitrile]: 4 nM. With `N#Cc1cc(F)cc(Oc2ccc(S(=O)(=O)C(F)(F)F)c3c2CC(F)(F)[C@H]3N)c1` [Compound 54, 3-[(1S)-1-amino-2,2-difluoro-7-(trifluoromethylsulfonyl)indan-4-yl]oxy-5-fluoro-benzonitrile], the EC50 with 786-O-Hif-Luc cells (24 h) was found to be 170 nM.

Regarding `CS(=O)(=O)c1ccc(Oc2cc(F)cc(C#N)c2)c2c1[C@H](O)[C@H](F)[C@H]2F` [Compound 58, 3-[(1S,2S,3S)-2,3-difluoro-1-hydroxy-7-methylsulfonyl-indan-4-yl]oxy-5-fluoro-benzonitrile], the EC50 in the test on 786-O-Hif-Luc cells (setting [2]) was 1020 nM. The same measure, in the same setting: next, `N#Cc1cc(F)cc(Oc2ccc(S(N)(=O)=O)c3c2[C@@H](F)[C@@H](F)[C@H]3O)c1` [Compound 100, (1R,2S,3S)-7-(3-cyano-5-fluoro-phenoxy)-1,2-difluoro-3-hydroxy-indane-4-sulfonamide]: 67 nM. For `N#Cc1cc(F)cc(Oc2ccc(S(N)(=O)=O)c3c2[C@H](F)C(F)(F)[C@H]3O)c1` [Compound 103, (1S,3S)-7-(3-cyano-5-fluoro-phenoxy)-1,2,2-trifluoro-3-hydroxy-indane-4-sulfonamide], the EC50 with 786-O-Hif-Luc cells (24 h) came out at 253 nM. Take `O=S1(=O)CC(O)c2c1ccc(Oc1cc(F)cc(Cl)c1)c2Br` (stereo not shown) [Compound 116, 4-Bromo-5-(3-chloro-5-fluorophenoxy)-3-hydroxy-2,3-dihydrobenzo[b]thiophene 1,1-dioxide]: the EC50 with 786-O-Hif-Luc cells was determined as 4800 nM.

As to `O=S1(=O)c2ccc(Oc3cc(F)cc(F)c3)c(C(F)F)c2C(O)C1F` (stereo not shown) [Compound 133, 4-(difluoromethyl)-5-(3,5-difluorophenoxy)-2-fluoro-3-hydroxy-2,3-dihydrobenzo[b]thiophene 1,1-dioxide], the EC50 with 786-O-Hif-Luc cells (setting [2]) is 124 nM. Regarding `N#Cc1cc(F)cc(Oc2ccc3c(c2C(F)F)C(O)C(F)(F)S3(=O)=O)c1` (stereo not shown) [Compound 139, 3-((4-(Difluoromethyl)-2,2-difluoro-3-hydroxy-1,1-dioxido-2,3-dihydrobenzo[b]thiophen-5-yl)oxy)-5-fluorobenzonitrile], the EC50 in the test with 786-O-Hif-Luc cells (setting [3]) was 4 nM.

Regarding `[2H]C1(O)c2c(ccc(Oc3cc(F)cc(C#N)c3)c2C(F)F)S(=O)(=O)C1(F)F` (stereo not shown) [Compound 150, 3-((4-(Difluoromethyl)-2,2-difluoro-3-hydroxy-1,1-dioxido-2,3-dihydrobenzo[b]thiophen-5-yl-3-d)oxy)-5-fluorobenzonitrile], in the test with 786-O-Hif-Luc cells, the EC50 is 12 nM. As for `[2H][C@@]1(O)c2c(ccc(Oc3cc(F)cc(C#N)c3)c2C(F)F)S(=O)(=O)C1(F)F` [Compound 153, (R)-3-((4-(Difluoromethyl)-2,2-difluoro-3-hydroxy-1,1-dioxido-2,3-dihydrobenzo[b]thiophen-5-yl-3-d)oxy)-5-fluorobenzonitrile], the EC50 in the test with 786-O-Hif-Luc cells (setting [3]) stood at 6 nM.
